Test results taken from patent US10513520B2, “Sulfamide and sulfamate inhibitors of hHint1” (Regents of the University of Minnesota, priority 2016, dated 2019).
Counter-ions that a name gives are not always drawn. Like-named read-outs stand apart in the source and are kept apart here.

What was measured:
hHint1 [1] = target: T1, hHint1 (Homo sapiens (Human), UniProt P49773); assay: Isothermal titration calorimetry (ITC) of hHint1-ligand complexes; format: binding; conditions: for Kd / ΔG / ΔH / −TΔS: ITC, hHint1; for Kd: 20° C.
T1 sequence (P49773 whole entry): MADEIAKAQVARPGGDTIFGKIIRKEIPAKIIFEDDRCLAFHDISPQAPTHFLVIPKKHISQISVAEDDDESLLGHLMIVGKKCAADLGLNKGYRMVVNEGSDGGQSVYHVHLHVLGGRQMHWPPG
Procedure: Isothermal Titration Calorimetry (ITC) ITC experiments were conducted on a MicroCal Auto-ITC200 system (GE Healthcare life sciences). […] To determine the dissociation constant of stock concentration (300-400 uM) of inhibitors was titrated with 15-20 uM of Hint1. Twenty injections of ligand were injected (injection volume 2 ul) into the protein cell. […] The in vitro binding affinity of the new series was evaluated of analogues for hHint1 using isothermal calorimetry (ITC).

hHint1 [2] = target: T1, hHint1; assay: Fluorescence assay of hHint1 activity at fixed saturating substrate concentration; format: biochemical
Source text: The effect of a non-hydrolyzable nucleotide analog Bio-AMS was compared with compound 3 on the activity of hHint1 using a fluorescence assay described previously.^3
Isothermal titration calorimetry (ITC) was used to investigate the nature of non-covalent interactions on the inhibitory activity of Bio-AMS on hHint1.

[3] = Solubility (aqueous buffers, water, DMSO); format: physicochemical
Source text: Replacement of the 5′-oxygen atom in the acyl-sulfamate with a nitrogen affords an acyl-sulfamide backbone, which increases the pKa of the backbone NH by 2-3 units.

ICR mice [4] = assay: Inhibition of morphine inhibition of NMDA-evoked scratching and biting behavior; format: in vivo, mouse; conditions: male mice, intrathecal pretreatment before morphine and NMDA
Procedure: Male ICR mice (25-30) were given TpGc (10 nmol) 10 minutes before morphine sulfate (10 nmol) intrathecally. After a period of 10 minutes, NMDA was injected intrathecally and scratching and biting behaviors were quantified. The MPE % was calculated using morphine alone as the positive control.
Male mice were given intrathecal treatment of either morphine or morphine+a HINT1 inhibitor. They were then given an intrathecal injection of NMDA and scratching and biting behaviors were counted for 1 minute. […]

ICR mice [5] = assay: Spared nerve injury (SNI), von Frey mechanical threshold testing; format: in vivo, mouse; conditions: for SNI-induced mechanical hypersensitivity, injection on day 7 following injury: 1 nmol intrathecally 7 days post spared nerve injury; for SNI-induced mechanical hypersensitivity, pretreatment: 1 nmol intrathecally prior to spared nerve injury
Procedure: Male and Female ICR mice (25-30 g) were given 1 nmol of TpGc prior to (Panel A) or 7 days post (Panel B) spared nerve injury. A separate cohort (Panel C) of male ICR mice (25-50 g) were given 1 nmol of compound 7 intrathecally both prior to and 7 days post spared nerve injury. All cohorts were evaluated with Von Frey mechanical threshold testing.
Male and female ICR mice were given 1 nmol of HINT1 inhibitor TpGc or 7 intrathecally either immediately prior to or 7 days following induction of neuropathic pain via spared nerve injury (Decosterd, 2000). Briefly, an incision is made into the leg of the mouse directly above the branching of the sciatic nerve. The peroneal and tibial branches of the nerve are ligated and cut while the sural branch is left intact, leading to a localized hypersensitivity on the lateral portion of the hindpaw. Von Frey mechanical testing was performed prior to surgery and for up to 7 days post surgery.

ICR mice [6] = assay: Development of morphine analgesic tolerance, tail flick assay; format: in vivo, mouse; conditions: HINT1 inhibitor+morphine intrathecally for 3 days, morphine challenge on Day 4
hHint1 [7] = target: T1, hHint1; conditions: ITC, cited from earlier work
mice [8] = conditions: icv, cited from earlier work
mice [9] = conditions: single icv administration, CCI mice, cited from earlier work
[10] = data adapted from Garzon et al.

SMILES	Kd (hHint1 [1]) [µM]	ED50, attenuation of morphine's inhibition of NMDA-evoked behavior (ICR mice [4]) [µM]	SNI-induced mechanical hypersensitivity, injection on day 7 following injury (ICR mice [5])	SNI-induced mechanical hypersensitivity, pretreatment (ICR mice [5])	morphine potency and efficacy after tolerance development protocol (ICR mice [6])	ΔG (hHint1 [1]) [kJ/mol]	ΔH (hHint1 [1]) [kJ/mol]	−TΔS (hHint1 [1]) [kJ/mol]	stock solutions easily prepared in aqueous buffers [3]	also measured
Nc1nc2c(ncn2C2OC(COS(=O)(=O)NC(=O)CCc3c[nH]c4ccccc34)C(O)C2O)c(=O)[nH]1 (single isomer, unassigned) [Compound 4, 5′-O—[N-(3-Indolepropionic acid)sulfamoyl] Guanosine Triethylammonium Salt]	0.81 ± 0.11									
Nc1nc2c(ncn2[C@@H]2O[C@H](COC(=O)NCCc3c[nH]c4ccccc34)[C@@H](O)[C@H]2O)c(=O)[nH]1 [Compound 3, guanosine-5′-tryptamine carbamate]		0.00061	transient reversal of mechanical hypersensitivity	sustained attenuation of SNI-induced mechanical hypersensitivity	equivalent potency and efficacy compared to the saline pre-treatment					IC50 (hHint1 [2]): 25.5 ± 6 µM; aqueous solubility ([3]; in words): poor solubility; ΔG (hHint1 [7]; [10]): -17.2 ± 8.37 kJ/mol; ΔH (hHint1 [7]; [10]): -56.65 ± 4.18 kJ/mol; −TΔS (hHint1 [7]; [10]): 39.9 ± 17.4 kJ/mol; Kd (hHint1 [7]; data adapted from previously published result by Garzon et al.): 3.65 ± 1 µM; effect on development of morphine tolerance (mice [8]; listed as TpGc): reduced the development of acute tolerance; effect on morphine analgesia / antinociception (mice [8]; listed as TpGc): potentiated morphine-evoked antinociception; effect on development of morphine tolerance (mice [8]): rescues and prevents the development of NMDAR mediated morphine tolerance; effect on morphine analgesia / antinociception (mice [8]): enhances morphine analgesia; mechanical allodynia (mice [9]): reduce mechanical allodynia in animals for several days; mechanical allodynia (mice [9]; listed as TpGc): significant attenuation of mechanical allodynia that persisted for several days
Nc1nc2c(ncn2[C@@H]2O[C@H](COS(=O)(=O)NC(=O)CCc3c[nH]c4ccccc34)C(O)[C@@H]2O)c(=O)[nH]1 (stereo partly drawn) [Compound 4, 5′-O—[N-(3-Indolepropionic acid)sulfamoyl] Guanosine Triethylammonium Salt]						-35.4 ± 1.7	-69.08 ± 0.711	33.7 ± 3.68	up to 5 mM	fold increase in binding affinity over compound 3 (hHint1 [1]; compared with compound 3): 4.5 fold
CCCC(=O)NS(=O)(=O)OC[C@H]1O[C@@H](n2cnc3c(=O)[nH]c(N)nc32)C(O)C1O (stereo partly drawn) [Compound 5]	2.9 ± 0.25					-24.3 ± 4.18	-56.86 ± 4.69	32.3 ± 1.13	up to 5 mM	decrease in the enthalpy of binding (hHint1 [1]; compared with compound 4): ~8.4 kJ/mol; fold greater dissociation constant in comparison to 4 (hHint1 [1]; compared with compound 4): 3-4 fold
Nc1nc2c(ncn2[C@@H]2O[C@H](CNS(=O)(=O)NC(=O)CCc3c[nH]c4ccccc34)C(O)C2O)c(=O)[nH]1 (stereo partly drawn) [Compound 6, 5′-N—[N-(3-Indolepropionic acid)sulfamoyl] Guanosine Triethylammonium Salt]	0.92 ± 0.07					-34.5 ± 0.502	-61.71 ± 0.502	27.5 ± 0.711	up to 5 mM	
O=C(CCc1c[nH]c2ccccc12)NS(=O)(=O)OC[C@H]1O[C@@H](n2cnc3c2ncn2ccnc32)[C@@H](O)C1O (stereo partly drawn) [Compound 7, 5′-O—[N-(3-Indolepropionic acid)sulfamoyl]EthenoAdenosine Triethylammonium Salt]		0.00047	transient reversal that resolved at 4 hours post injection	did not lead to an attenuation of pain behavior	equivalent potency and efficacy compared to the saline pre-treatment				≤ 20 mM	
